Measured values published in US8362023B2, “Pyrazolo pyrimidines” (Hoffmann-La Roche Inc., priority 2011, dated 2013).
Counter-ions that a name gives are not always drawn.

What was measured:
[1] = test system: SW620 human colon cancer cells; assay: SW620 Cell Viability Assay; format: cell-based; conditions: SW-620, 96 h, CellTiter-Glo Luminescent Cell Viability Assay, 4 days incubation, read-out: Cellular EC50 (μM) SW620
Procedure: SW620 Cell Viability Assay
1. Cell Plate Preparation: SW620 human colon cancer cells (known to express DYRK1B), obtained from ATCC, were seeded into 96-well plates at 3×10^3 cells/well in 50 μL of media. • Harvested the required number of cells (counts & viability determined by Guava Viacount). • Centrifuge cells to pellet and removed supernant. • Resuspended in growth media (50 μL/well) & pipetted thoroughly to break up clumps. • Setup for ˜100 wells/plate, therefore, VT=5 mL/plate @ […].
1A. Some cells (S—) were allowed to attach for 24 hrs, serum starved for 48 hrs, and then followed with test compound treatments.
Test compound solution were prepared in regular corresponding media supplemented with serum.
2. Test compound Preparation: Drugs were solubilized in either DMSO or media and prepared at various stock concentrations. • All compounds were incubated at 37° C. for 30 minutes and vortexed. • (5 mM stocks of test compound were prepared for non-soluble test compounds)
3. Test compound Plate Preparation: • The 10 mM test compound stock was diluted to a concentration of 100× the final Cmax concentration. • Then the test compound stock is diluted 50-fold in media and/or second test compound for a final Cmax concentration in the test compound plate. • The Cmax in the test compound plate (2% DMSO) is 2-fold higher than the final Cmax in the cell plate (60 μl, titrations were 1:3).
4. Viability Assay: This assay was performed as follows: • Transfer 50 μL of test compound solution per well from the test compound plate onto the cell plate prepared in Step #1. • Mix the plate with treated cells by pipetting up and down three times with 200 μL multi-channel pipette. • Incubate the cells in 5% CO2 incubator @ 37° C. for 4 days. • Run the CellTiter-Glo™ Luminescent Cell Viability Assay.
The results of this assay, given as EC50 values, indicate the concentration of test compound that inhibits tumor cell proliferation by 50%.

[2] = target: T1, Human DYRK1B (Homo sapiens, UniProt Q9Y463); assay: DYRK1B Kinase TR-FRET (IMAP-Tb) Assay; format: biochemical; conditions: TR-FRET (IMAP-Tb); ATP 70 μM; 37° C. for 60 minutes; averages of multiple runs; read-out: Enzyme IC50 (μM) DYRK1B
T1 construct: purchased Invitrogen PR8350B (former PV4649)
T1 sequence (Q9Y463 whole entry): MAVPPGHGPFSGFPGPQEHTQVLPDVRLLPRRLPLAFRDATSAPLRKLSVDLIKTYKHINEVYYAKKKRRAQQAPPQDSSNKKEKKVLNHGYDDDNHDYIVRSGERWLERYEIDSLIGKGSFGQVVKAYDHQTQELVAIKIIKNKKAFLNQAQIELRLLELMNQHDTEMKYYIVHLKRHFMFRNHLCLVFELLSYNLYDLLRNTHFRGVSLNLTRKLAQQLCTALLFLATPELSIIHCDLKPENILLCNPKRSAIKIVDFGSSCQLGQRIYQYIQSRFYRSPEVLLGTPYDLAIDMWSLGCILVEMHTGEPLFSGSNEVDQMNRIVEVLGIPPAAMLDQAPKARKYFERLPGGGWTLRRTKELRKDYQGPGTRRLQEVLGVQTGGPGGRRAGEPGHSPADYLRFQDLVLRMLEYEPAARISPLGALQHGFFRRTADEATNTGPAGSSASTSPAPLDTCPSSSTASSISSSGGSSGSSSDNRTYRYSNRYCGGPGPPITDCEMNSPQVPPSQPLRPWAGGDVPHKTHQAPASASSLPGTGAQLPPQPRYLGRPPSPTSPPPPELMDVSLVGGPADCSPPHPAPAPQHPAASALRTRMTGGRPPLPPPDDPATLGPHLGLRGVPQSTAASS
From the text: DYRK1B Kinase TR-FRET (IMAP-Tb) Assay Assay Principle The kinase TR-FRET (IMAP-Tb) assay uses a fluorescence labeled substrate peptide in the kinase reaction. Upon phosphorylation by the kinase, phosphopeptide is produced, which will be detected by the binding solution provided in IMAP TR-FRET binding kit. After the completion of the kinase reaction, the reaction will be stopped by adding the binding solution containing terbium tracer. This tracer is immobilized on the surface of the IMAP beads, which also contain metal ions on the beads that bind to the phospho-groups of the products. Thus the phosphorylated product of the reaction can enter into close proximity to the tracer, producing resonance energy transfer. Due to the long lifetime of terbium (Tb) fluorescence the detection can be run in time resolved mode, which virtually eliminates fluorescence interference from assay components or compounds. The TR-FRET signal measurement from this assay, given as an IC50 measurement, is a measure of a test compound's ability to interfere with the phosphorylation of the peptide substrate, that is it inhibits the phosphorylation of the substrate peptide by DYRK1B, and is thus a measure of the test compound's ability to inhibit the activity of DYRK1B. IC50 is the amount of test compound that inhibits 50% of the activity of DYRK1B in this assay. In some cases where the IC50 was not determined, then the % inhibition at 10 μM test compound concentration may be reported. Materials and Reagents • 1. Human DYRK1B: from Invitrogen. Part #PR8350B (former PV4649) • 2. Substrate Peptide: in-house synthesized: RRRFRPASPLRGPPK • 3. IMAP TR-FRET IPP Explorer Kit: from Molecular Devices. Part #R8157 • 4. Kinase Assay Buffer (KAB): 10 mM HEPES pH 7.0, 50 mM NaCl, 5 mM MgCl2, 1 mM DTT, 1 mM NaVO4, 200 μg/mL BSA (0.02%) • 5. Assay Plate: Remp polypropylene clear 384-well microplate. Cat#23490-102 • 6. Detection Plate: Costa black 384-well microplate. Cat #3710 Assay Procedure: this Assay was Performed as Follows: • 1. Transfer 1.5 μL of 20× compound solution to each well of an assay plate. • 2. Add to each well 22.5 μL of KAB Buffer. • 3. Add to each well 3 μL of the solution of DYRK1B and ATP. […] Add to each well 3 μL of the substrate peptide. The assay concentration is 1.0 μM • 5. Incubate the assay plates at 37° C. for 60 minutes. • 6. Add 18 μL of Detection Solution (1:800 diluted Progress bead stock, 1:400 diluted Tb stock, 80% Buffer A, and 20% Buffer B) into each well of detection plates. • 7. Transfer 6 μL of assay solution from the assay plate to the detection plate. • 8. Shake detection plates for 30 minutes. • 9. Read plates in Envision with wavelength set at excitation 340 nm for Tb, emission 490 nm, and […] 520 nm. • 10. Calculation: TR-FRET Signal=(Reading at […]/Reading at 490 nM)×2000000

[3] = target: T2, Human DYRK1A (Homo sapiens, UniProt Q13627); assay: DYRK1A Kinase TR-FRET (IMAP-Tb) Assay; format: biochemical; conditions: TR-FRET (IMAP-Tb); ATP 70 μM; 37° C. for 60 minutes; averages of multiple runs; read-out: Enzyme IC50 (μM) DYRK1A
T2 construct: purchased Invitrogen PV3997
From the text: DYRK1A Kinase TR-FRET (IMAP-Tb) Assay
The kinase TR-FRET (IMAP-Tb) assay uses a fluorescence labeled substrate peptide in the kinase reaction. Upon phosphorylation by the kinase, phosphopeptide is produced, which will be detected by the binding solution provided in IMAP TR-FRET binding kit. After the completion of the kinase reaction, the reaction will be stopped by adding the binding solution containing terbium tracer. This tracer is immobilized on the surface of the IMAP beads, which also contain metal ions on the beads that bind to the phospho-groups of the products. Thus the phosphorylated product of the reaction can enter into close proximity to the tracer, producing resonance energy transfer. Due to the long lifetime of terbium (Tb) fluorescence the detection can be run in time resolved mode, which virtually eliminates fluorescence interference from assay components or compounds.
The TR-FRET signal measurement from this assay, given as an IC50 measurement, is a measure of a test compound's ability to interfere with the phosphorylation of the peptide substrate, that is it inhibits the phosphorylation of the substrate peptide by DYRK1A, and is thus a measure of the test compound's ability to inhibit the activity of DYRK1A.
Materials and Reagents • 1. Human DYRK1A: from Invitrogen. Part #PV3997 • 2. Substrate Peptide: […] • 3. IMAP TR-FRET IPP Explorer Kit: from Molecular Devices. Part #R8157 • 4. Kinase Assay Buffer (KAB): 10 mM HEPES pH 7.0, 50 mM NaCl, 5 mM MgCl2, 1 mM DTT, 1 mM NaVO4, 200 ug/mL BSA (0.02%) • 5. Assay Plate: Remp polypropylene clear 384-well microplate. […] Detection Plate: Costa black 384-well microplate.
Assay Procedure: this Assay was Performed as Follows: • 1. Transfer 1.5 μL of 20× compound solution to each well of an assay plate. • 2. Add to each well 22.5 μL of KAB Buffer. • 3. Add to each well 3 μL of the solution of DYRK1A and ATP. […] Add to each well 3 μL of the substrate peptide. The assay concentration is 1.0 μM • 5. Incubate the assay plates at 37° C. for 60 minutes. • 6. Add 18 μL of Detection Solution (1:800 diluted Progress bead stock, 1:400 diluted Tb stock, 80% Buffer A, and 20% Buffer B) into each well of detection plates. • 7. Transfer 6 μL of assay solution from the assay plate to the detection plate. • 8. Shake detection plates for 30 minutes. • 9. Read plates in Envision with wavelength set at excitation 340 nm for Tb, emission 490 nm, and […] 520 nm. • 10.

| SMILES | EC50 [1] [µM] | IC50 [2] [µM] | IC50 [3] [µM] |
| --- | --- | --- | --- |
| Clc1ccccc1CNc1cccc(-c2n[nH]c3nc(NCCN4CCOCC4)ncc23)n1 [Example 59, {3-[6-(2-Chloro-benzylamino)-pyridin-2-yl]-1H-pyrazolo[3,4-d]pyrimidin-6-yl}-(2-morpholin-4-yl-ethyl)-amine] | > 10 | 0.924 | 0.663 |
| NCC(Nc1cccc(-c2n[nH]c3nc(N[C@H]4CC[C@H](N)CC4)ncc23)n1)c1ccccc1 (stereo partly drawn) [Example 74, N-{3-[6-(2-Amino-1-phenyl-ethylamino)-pyridin-2-yl]-1H-pyrazolo[3,4-d]pyrimidin-6-yl}-cyclohexane-1,4-diamine; hydrochloride] | > 10 | < 0.0046 | 0.0046 |
| N[C@H]1CC[C@H](Nc2ncc3c(-c4cccc(NCc5cccs5)c4)n[nH]c3n2)CC1 [Example 53, N-(3-{3-[(Thiophen-2-ylmethyl)-amino]-phenyl}-1H-pyrazolo[3,4-d]pyrimidin-6-yl)-cyclohexane-1,4-diamine] | 1.84 | 0.183 | 0.405 |
| NCCC(Nc1cccc(-c2n[nH]c3nc(N[C@H]4CC[C@H](N)CC4)ncc23)n1)c1ccccc1 (stereo partly drawn) [Example 69, N-{3-[6-(3-Amino-1-phenyl-propylamino)-pyridin-2-yl]-1H-pyrazolo[3,4-d]pyrimidin-6-yl}-cyclohexane-1,4-diamine; hydrochloride] | 0.001 | 0.197 | 0.231 |
| N[C@H]1CC[C@H](Nc2ncc3c(-c4ccnc(NCc5cccc(Cl)c5)n4)n[nH]c3n2)CC1 [Example 71, N-{3-[2-(3-Chloro-benzylamino)-pyrimidin-4-yl]-1H-pyrazolo[3,4-d]pyrimidin-6-yl}-cyclohexane-1,4-diamine; hydrochloride] | 0.027 | 0.006 | 0.0046 |
| NCC(Nc1nccc(-c2n[nH]c3nc(NCCN4CCOCC4)ncc23)n1)c1ccsc1 (stereo not drawn) [Example 82, N1-{4-[6-(2-Morpholin-4-yl-ethylamino)-1H-pyrazolo[3,4-d]pyrimidin-3-yl]-pyrimidin-2-yl}-1-thiophen-3-yl-ethane-1,2-diamine; hydrochloride] | 0.27 | 0.012 | 0.005 |
| N[C@H]1CC[C@H](Nc2ncc3c(-c4cccc(NCc5ccccc5Cl)c4)n[nH]c3n2)CC1 [Example 56, N-{3-[3-(2-Chloro-benzylamino)-phenyl]-1H-pyrazolo[3,4-d]pyrimidin-6-yl}-cyclohexane-1,4-diamine] | 4.1 | 0.194 | 0.346 |
| Clc1ccccc1CNc1cccc(-c2n[nH]c3nc(NCCN4CCOCC4)ncc23)c1 [Example 57, {3-[3-(2-Chloro-benzylamino)-phenyl]-1H-pyrazolo[3,4-d]pyrimidin-6-yl}-(2-morpholin-4-yl-ethyl)-amine] | > 10 | 1.55 | 2.62 |
| N[C@H]1CC[C@H](Nc2ncc3c(-c4ccnc(NCc5ccsc5)n4)n[nH]c3n2)CC1 [Example 66, N-(3-{2-[(Thiophen-3-ylmethyl)-amino]-pyrimidin-4-yl}-1H-pyrazolo[3,4-d]pyrimidin-6-yl)-cyclohexane-1,4-diamine; hydrochloride] | 0.04 | 0.0172 | 0.0148 |
| N[C@H]1CC[C@H](Nc2ncc3c(-c4ccnc(NCc5ccc(Cl)cc5)n4)n[nH]c3n2)CC1 [Example 72, N-{3-[2-(4-Chloro-benzylamino)-pyrimidin-4-yl]-1H-pyrazolo[3,4-d]pyrimidin-6-yl}-cyclohexane-1,4-diamine; hydrochloride] | 0.056 | 0.009 | 0.013 |
| c1cc(NCc2cccs2)cc(-c2n[nH]c3nc(NCCN4CCOCC4)ncc23)c1 [Example 54, (2-Morpholin-4-yl-ethyl)-(3-{3-[(thiophen-2-ylmethyl)-amino]-phenyl}-1H-pyrazolo[3,4-d]pyrimidin-6-yl)-amine] | > 10 | 4.96 | 3.85 |
| NCC(Nc1nccc(-c2n[nH]c3nc(NCCN4CCOCC4)ncc23)n1)c1cccc(Cl)c1 (stereo not drawn) [Example 76, 1-(3-Chloro-phenyl)-N1-{4-[6-(2-morpholin-4-yl-ethylamino)-1H-pyrazolo[3,4-d]pyrimidin-3-yl]-pyrimidin-2-yl}-ethane-1,2-diamine; hydrochloride] | 0.14 | 0.0121 | 0.0076 |
